Experimental data from patent publication US20260286302A1, “METHODS FOR PRODUCING A SUPER CENTRAL MEMORY CD8 T CELL SUBTYPE BY POLY(ADP-RIBOSE) POLYMERASE (PARP) INHIBITION AND USES THEREOF” (Georgetown University, priority 2023, published 2026).

Assays:
pMel-1 CD8 T cells = assay: Metabolomics and lipidomics of activated CD8 T cells; assay type: cell-based, mouse; conditions: PARPi-treated vs gp100 activated, 48 h
Experimental: Targeted metabolomics method, developed in-house, was used to quantitate 270 endogenous metabolites using QTRAP® 7500 LC-MS/MS System (Sciex, MA, USA). For this purpose, 20 μL of PBS was added to the cell pellet and sample tube was plunged into dry ice for 30 seconds and 37° C. water bath for 90 seconds. This cycle was repeated for two more times and then samples were sonicated for 1 minute and 100 μL of extraction buffer (methanol/water 50/50) containing 200 ng/ml of debrisoquine (DBQ) as internal standard for positive mode and 200 ng/mL of 4-nitrobenzoic acid as internal standard for negative mode was added. The samples were vortexed for 1 min and kept on ice for 20 minutes followed by addition of 100 μL of ACN. The samples were incubated at −20° C. for 20 minutes for protein precipitation. The samples were centrifuged at 13,000 rpm for 20 minutes at 4° C. The supernatant was transferred to MS vial for LC-MS analysis. 20 μL of each prepared sample was mixed to generate the pooled QC sample.
Five microliter of the prepared sample was injected onto a Kinetex 2.6 μm polar C18 100 Å 100×3.0 mm (Phenomenex, CA, USA) using SIL-30AC autosampler (Shimadzu) connected with a high flow LC-30AD solvent delivery unit (Shimadzu) and CBM-20A communication bus module (Shimadzu) online with QTRAP 5500 (Sciex, MA, USA) operating in positive and negative ion mode. A binary solvent comprising of water with 0.1% formic acid (solvent A) and acetonitrile with 0.1% formic acid (solvent B) was used. The extracted metabolites were resolved at 0.2 mL/min flow rate. The LC gradient conditions were as follows: Initial—100% A, 0% B for 2.1 minutes; 14 minutes—5% A, 95% B till 15 minutes; 15.1 minutes—100% A, 0% B till 20 minutes. The auto sampler and oven were kept at 15° C. and 30° C., respectively. Source and gas setting for the method were as follow: curtain gas=40, CAD gas=9, ion spray voltage=1700 V in positive mode and ion spray voltage=1600 V in negative mode, temperature=350° C., ion source gas 1=30 and ion source gas 2=50. […]

human CD8 T cells = assay: In vitro-activated human CD8+ T cells, memory characteristics; assay type: cell-based; conditions: anti-CD3/CD28 coupled beads for 72 h
Experimental: For evaluation of memory characteristics in human CD8+ T cells, naive CD8+ T cells were activated in the presence or absence of PARPi, by Dynabeads™ Human T-Activator CD3/CD28 (Thermo Fisher #11131), […]. Post-activation cells were gated upon CD8^+ T cell population and various characteristics were investigated as described in the Examples below.
(§1) A total of 0.1-0.2×10^6 cells per sample were stained for Live/Dead staining followed by fixation and permeabilization. For IFNγ and granzyme B (Gzm B) staining, BD Cytofix/Cytoperm (catalog no. 51-2090KZ) and BD Perm/Wash (catalog no. 51-2091KZ) buffer set were used according to the manufacturer's instructions (BD Pharmingen). CD8^+ T cells from tumor samples were stained similarly. Data acquisition was performed on a BD LSR II flow cytometer using the software FACS Diva v.9.0. Results were analyzed using FlowJo software (TreeStar). MitoFM, a green-fluorescent mitochondrial stain, which localizes to mitochondria, was used as described previously (Sukumar et al., Cell Metab 23 (1): 63-76, 2016).
To this end, human naïve CD8 T cells were activated with anti-CD3/CD28 coupled beads for 72 h.

TC-1 = assay: Tumor growth in immune deficient nude mice (TC-1); assay type: in vivo, mouse; conditions: TC-1 in immune deficient nude mice
Experimental: The effect of PARPi on direct CD8 T cell-driven anti-tumor immune response remains poorly understood. Therefore, to dissect this effect, the anti-tumor immune effect of PARPi was tested in vivo in tumor models that require T cell priming, which helps delineate the direct effect of the drug on CD8 T cells. […] While 18% and 10% of mice survived in the vaccine-treated and PARPi-treated groups, respectively, in the TC-1 tumor model at day 22, 90% survived when PARPi was added to the vaccine. Similarly, in the B16F10 tumor model, 10% of the mice treated with vaccine alone were alive at day 22, compared to 40% when PARPi was added.

[1] = test system: CD8+ T cells in TME of B16F10 tumors; assay: Immune profiling of the TME, B16F10 tumor-bearing mice; assay type: in vivo, mouse
Description: Two-to-three days after the second vaccination, mice in the various groups were euthanized and tumors were collected.
as §1

Structure (SMILES): O=C(c1cc(Cc2n[nH]c(=O)c3ccccc23)ccc1F)N1CCN(C(=O)C2CC2)CC1 [olaparib]
- TAGs (lipidomic analysis) (pMel-1 CD8 T cells): increased level
- metabolites related to TCA cycle (fumarate, malate, glutamate, FAD) (pMel-1 CD8 T cells): significantly increased
- top 50 differentially expressed metabolites (pMel-1 CD8 T cells): increased
- IFNγ expression (human CD8 T cells): significant increase
- number of CD45ROhiCCR7hi cells (human CD8 T cells): significant increase
- number of CD45ROhiCD62Lhi cells (human CD8 T cells): significant increase
- tumor growth (TC-1): did not affect tumor growth
- number of total and antigen-specific CD8+ T cells in TME ([1]; B16, vaccinated in the presence of PARPi vs either treatment alone): significant increase
- IFNγ+ and granzyme B+ total and antigen-specific CD8+ T cells ([1]; B16F10, PARPi given with the vaccine): enhanced functionality
- vaccine-induced central memory CD8 T cells in the TME ([1]; B16F10, PARPi with vaccine): increased
- proliferation of CD8 T cells as determined by Ki67 expression ([1]; B16F10 TME): significant decrease
